In assay [1] the test system is conscious telemetered dogs. As to the kind of experiment: Systolic blood pressure lowering after oral administration to conscious telemetered dogs. Format: in vivo, dog. To be noted: 10 mg/kg. An excerpt: Compounds 1 and 2 shown below were studied for systolic blood pressure lowering when orally administered to conscious telemetered dogs.
Assay [2] deals with isolated rabbit thoracic aorta preparations. As to the kind of experiment: Vessel relaxation assay in isolated rabbit thoracic aorta rings. Format: cell-based. To be noted: Oryctolagus cuniculus; rabbit aortic rings precontracted with noradrenaline, functional endothelium. As for the experimental part:
The ability of the compounds to induce vasorelaxation was tested in vitro in isolated rabbit thoracic aorta preparations (Wanstall J. C. et al., Br. J. Pharmacol., 134:463-472, 2001). Male New Zealand rabbits were anaesthetized with thiopental-Na (50 mg/kg, iv), sacrificed by exsanguinations and then the thorax was opened and the aorta dissected. Aortic ring preparations (4 mm in length) were set up in physiological salt solution (PSS) at 37° C. in small organ chambers (5 ml). The composition of PSS was (mM): NaCl 130, NaHCO3 14.9, KH2PO4 1.2, MgSO4 1.2, HEPES 10, CaCl2, ascorbic acid […] and glucose 1.1 (95% O2/5% CO2; pH 7.4). Each ring was mounted under 2 g passive tension. Isometric tension was recorded with a Grass transducer (Grass FT03) attached to a BIOPAC MP150 System. Preparations were allowed to equilibrate for 1 h, and then contracted submaximally with noradrenaline (NA, 1 μM) and, when the contraction was stable, acetylcholine (ACh, 10 μM) was added. A relaxant response to ACh indicated the presence of a functional endothelium. […] When a stable precontraction was reached, a cumulative concentration-response curve to either of the vasorelaxant agents was obtained in the presence of a functional endothelium. Each arterial ring was exposed to only one combination of inhibitor and vasorelaxant. […]
Example 3 and 4 were evaluated for vessel relaxation.

SMILES strings stand for the structures.

As for `CCCCc1nc(Cl)c(C(=O)OC(C)OC(=O)OCCCC[C@H](CO[N+](=O)[O-])O[N+](=O)[O-])n1Cc1ccc(-c2ccccc2-c2nnn[nH]2)cc1` (some centres unmarked) [Compound 1], in assay [1] (1-6 h), the “Approximate change in systolic blood pressure (mmHg), 1-6 h” value is −14 mmHg. For the same molecule, in assay [1] (6-12 h), the “Approximate change in systolic blood pressure (mmHg), 6-12 h” value is recorded as −7 mmHg. The “Approximate change in systolic blood pressure (mmHg), 12-18 h” value in assay [1] (12-18 h) is listed as 3 mmHg. Take `CCCCc1nc(Cl)c(C(=O)OC(C)OC(=O)OCCC(C)[C@@H](O[N+](=O)[O-])[C@@H](C)O[N+](=O)[O-])n1Cc1ccc(-c2ccccc2-c2nnn[nH]2)cc1` (stereo partly drawn) [Example 3, 1-[({[(4R,5R)-3-methyl-4,5-bis(nitrooxy)hexyl]oxy}carbonyl)oxy]ethyl 2-butyl-4-chloro-1-{[2′-(1H-tetrazol-5-yl)biphenyl-4-yl]methyl}-1H-imidazole-5-carboxylate]: the EC50 in assay [2] was found to be 8.5 µM.

`CCOc1nc2cccc(C(=O)OC(C)(C)OC(=O)OCCC(C)[C@@H](O[N+](=O)[O-])[C@@H](C)O[N+](=O)[O-])c2n1Cc1ccc(-c2ccccc2-c2nnn[nH]2)cc1` (stereo partly drawn) [Example 4, 1-[({[(4R,5R)-3 Methyl-4,5-bis(nitrooxy)hexyl]oxy}carbonyl)oxy]-1-methylethyl 2-ethoxy-1-{[2′-(1H-tetrazol-5-yl)biphenyl-4-yl]methyl}-1H-benzimidazole-7-carboxylate]: in assay [2], the EC50 came out at 6.4 µM.

Source of the values: patent US8252825B2, “Angiotensin II receptor antagonists” (NicOx, priority 2007, dated 2012).
